From the NIST ThermoML archive (doi:10.1021/je060474z)

Test: cn = amount concentration of the nth substance listed, in mol/dm3
Settings: 101.3 kPa, Liquid, Taylor dispersion method

OC[C@H]1O[C@@H]2O[C@H]3[C@H](O)[C@@H](O)[C@@H](O[C@H]4[C@H](O)[C@@H](O)[C@@H](O[C@H]5[C@H](O)[C@@H](O)[C@@H](O[C@H]6[C@H](O)[C@@H](O)[C@@H](O[C@H]7[C@H](O)[C@@H](O)[C@@H](O[C@H]1[C@H](O)[C@H]2O)O[C@@H]7CO)O[C@@H]6CO)O[C@@H]5CO)O[C@@H]4CO)O[C@@H]3CO [α-cyclodextrin] + O
binary diffusion coefficient [m2/s]
Settings	c1 = 0.002	c1 = 0.004	c1 = 0.006	c1 = 0.008	c1 = 0.01
298.15 K	3.52e-10	3.5e-10	3.49e-10	3.47e-10	3.46e-10
303.15 K	4.07e-10	4.04e-10	4.03e-10	4.01e-10	3.98e-10
308.15 K	4.38e-10	4.36e-10	4.35e-10	4.34e-10	4.31e-10
312.15 K	5.02e-10	4.98e-10	4.88e-10	4.78e-10	4.72e-10
